test system: TNF-α released by U937 cells (human histiocytic lymphoma cell line); experiment: U937 Cell Assay: LPS stimulation of TNF production by U937 cells, ELISA; assay type: cell-based; details: U-937, differentiated U937 cells, LPS 100 ng/ml, 4 hour incubation
Description: Maintenance and Differentiation of the U937 Human Histiocytic Lymphoma Cell Line:
U937 cells (ATCC) were propagated in RPMI 1640 containing 10% fetal bovine serum, 100 IU/ml penicillin, 100 μg/ml streptomycin, and 2 mM glutamine (Gibco). Fifty million cells in 100 ml media were induced to terminal monocytic differentiation by 24 hour incubation with 20 ng/ml phorbol 12-myristate 13-acetate (Sigma). The cells were washed by centrifugation (200×g for 5 min) and resuspended in 100 ml fresh medium. After 24-48 hours, the cells were harvested, centrifuged, and resuspended in culture medium at 2 million cells/ml.
LPS Stimulation of TNF Production by U937 Cells:
U937 cells (0.1 ml, 2 million/ml) were incubated with 0.1 ml compound (0.004-50 μM, final concentration) for 1 hour in 96 well microtiter plates. Compounds were prepared as 10 mM stock solutions in DMSO and diluted in culture medium to yield a final DMSO concentration of 0.1% in the cell assay. LPS (E. coli, 100 ng/ml final concentration) was then added at a volume of 0.02 ml. After 4 hour incubation at 37° C., the amount of TNF-α released in the culture medium was quantitated by ELISA. Inhibitory potency is expressed as IC50 (μM).

Row | IC50 | Structure (SMILES)
1 | 0.21 µM | Cc1cccc(-n2nc(C)cc2-c2ccnc(NCCO)c2)c1 [Example 26, 2-(2-Hydroxyethylamino)-4-[1-(3-methylphenyl)-3-methyl-1H-pyrazol-5-yl]pyridine]
2 | > 10 µM | Cc1cc(-c2ccnc(C#N)c2)n(-c2ccc(F)cc2)n1 [Example 32, 2-Cyano-4-[1-(4-fluorophenyl)-3-methyl-1H-pyrazol-5-yl]pyridine]
3 | ≥ 10 µM | O=C(O)c1cnn(-c2ccc(F)cc2)c1-c1ccncc1 [Example 43]
4 | ≥ 10 µM | Cc1cccc(-n2nc(C)cc2-c2ccnc(N(C)Cc3ccccc3)c2)c1 [Example 27, 2-(N-Methylbenzylamino)-4-[1-(3-methylphenyl)-3-methyl-1H-pyrazol-5-yl]pyridine]
5 | 0.72 µM | CCNc1cc(-c2cc(C)nn2-c2ccc(C)cc2)ccn1 [Example 8]
6 | ≥ 10 µM | Fc1ccc(-n2ncc(N3CCNCC3)c2-c2ccncc2)cc1 [Example 18]

The next lines start with the molecule.

Row | Structure (SMILES) | IC50
7 | Fc1ccc(-n2nccc2-c2ccnc(NCc3ccccc3)c2)cc1 [Example 29, 2-(Benzylamino)-4-[1-(4-fluorophenyl)-1H-pyrazol-5-yl]pyridine] | 0.24 µM
8 | Cc1cccc(-n2nc(C)cc2-c2ccnc(OCc3ccccc3)c2)c1 [Example 28, 2-Bezyloxy-4-[1-(3-methylphenyl)-3-methyl-1H-pyrazol-5-yl]pyridine] | 2.64 µM
9 | Fc1ccc(-n2nccc2-c2ccnc(Cl)c2)cc1 [Example 45, 2-Chloro-4-[1-(4-fluorophenyl)-1H-pyrazol-5-yl]pyridine] | ≥ 10 µM
10 | CCNc1cc(-c2ccncc2)n(-c2ccc(F)cc2)n1 [Example 15] | ≥ 10 µM
11 | Cc1cc(-c2ccnc(NCCc3ccccc3)c2)n(-c2ccc(Cl)cc2)n1 [Example 13] | 0.86 µM

target: T1, human p38 kinase alpha (Homo sapiens, UniProt Q16539); experiment: p38 Kinase Assay (in vitro; PHAS-I/32P-ATP format or EGFRP/33P-ATP format); assay type: biochemical; details: activated human p38 kinase alpha, 50 μM unlabeled ATP; table does not say which of the two assay formats
T1 construct: The coding region of the human p38a cDNA was obtained by PCR-amplification from RNA isolated from the human monocyte cell line THP.1; GST (N); made in house; host or cells: E. coli DH10B
Description: The coding region of the human p38a cDNA was obtained by PCR-amplification from RNA isolated from the human monocyte cell line THP.1. First strand cDNA was synthesized from total RNA as follows: 2 μg of RNA was annealed to 100 ng of random hexamer primers in a 10 μl reaction by heating to 70° C. for 10 minutes followed by 2 minutes on ice. cDNA was then synthesized by adding 1 μl of RNAsin (Promega, Madison Wis.), 2 μl of 50 mM dNTP's, 4 μl of 5×buffer, 2 μl of 100 mM DTT and 1 μl (200 U) of Superscript II™ […] reverse transcriptase. Random primer, dNTP's and Superscript™ reagents were all purchased from Life-Technologies, Gaithersburg, Mass. The reaction was incubated at 42° C. for 1 hour. Amplification of p38 cDNA was performed by aliquoting 5 μl of the reverse transcriptase reaction into a 100 μl PCR reaction containing the following: 80 μl dH2O, 2 μl 50 mM dNTP's, 1 μl each of forward and reverse primers (50 pmol/μl), 10 μl of 10× buffer and 1 μl Expand™ polymerase (Boehringer Mannheim). The PCR primers incorporated Bam HI sites onto the 5′ and 3′ end of the amplified fragment, and were purchased from Genosys. The forward and reverse primers were 5′-[…]-3′ and 5′[…]-3′, respectively. The PCR amplification was carried out in a DNA Thermal Cycler (Perkin Elmer) by repeating 30 cycles of 94° C. for 1 minute, 60° C. for 1 minute and 68° C. for 2 minutes. After amplification, excess primers and unincorporated dNTP's were removed from the amplified fragment with a Wizard™ PCR prep (Promega) and digested with Bam HI (New England Biolabs). The Bam HI digested fragment was ligated into BamHI digested pGEX 2T plasmid DNA (PharmaciaBiotech) using T-4 DNA ligase (New England Biolabs) as described by T. Maniatis, Molecular Cloning: A Laboratory Manual, 2nd ed. (1989). The ligation reaction was transformed into chemically competent E. coli DH10B cells purchased from Life-Technologies following the manufacturer's instructions. Plasmid DNA was isolated from the resulting bacterial colonies using a Promega Wizard™ miniprep kit. Plasmids containing the appropriate Bam HI fragment were sequenced in a DNA Thermal Cycler (Perkin Elmer) with Prism™ (Applied Biosystems Inc.). cDNA clones were identified that coded for both human p38a isoforms (Lee et al. Nature 372, 739). One of the clones which contained the cDNA for p38a-2 (CSBP-2) inserted in the cloning site of pGEX 2T, 3′ of the GST coding region was designated pMON 35802. The sequence obtained for this clone is an exact match of the cDNA clone reported by Lee et al. This expression plasmid allows for the production of a GST-p38a fusion protein.
Expression of Human p38a:
GST/p38a fusion protein was expressed from the plasmid pMON 35802 in E. coli, stain DH10B (Life Technologies, Gibco-BRL). Overnight cultures were grown in Luria Broth (LB) containing […] ampicillin. The next day, 500 ml of fresh LB was inoculated with 10 ml of overnight culture, and grown in a 2 liter flask at 37° C. with constant shaking until the culture reached an absorbance of 0.8 at 600 nm. Expression of the fusion protein was induced by addition of isopropyl b-D-thiogalactosidse (IPTG) to a final concentration of 0.05 mM. The cultures were shaken for three hours at room temperature, and the cells were harvested by centrifugation. The cell pellets were stored frozen until protein purification.
Purification of p38 Kinase-α:
All chemicals were from Sigma Chemical Co. unless noted. Twenty grams of E. coli cell pellet collected from five 1 L shake flask fermentations was resuspended in a volume of PBS (140 mM NaCl, 2.7 mM KCl, 10 mM Na2HPO4, 1.8 mM KH2PO4, pH 7.3) up to 200 ml. The cell suspension was adjusted to 5 mM DTT with 2 M DTT and then split equally into five 50 ml Falcon conical tubes. The cells were sonnicated (Ultrasonics model W375) with a 1 cm probe for 3×1 minutes (pulsed) on ice. […]

T1 sequence (Q16539 whole entry): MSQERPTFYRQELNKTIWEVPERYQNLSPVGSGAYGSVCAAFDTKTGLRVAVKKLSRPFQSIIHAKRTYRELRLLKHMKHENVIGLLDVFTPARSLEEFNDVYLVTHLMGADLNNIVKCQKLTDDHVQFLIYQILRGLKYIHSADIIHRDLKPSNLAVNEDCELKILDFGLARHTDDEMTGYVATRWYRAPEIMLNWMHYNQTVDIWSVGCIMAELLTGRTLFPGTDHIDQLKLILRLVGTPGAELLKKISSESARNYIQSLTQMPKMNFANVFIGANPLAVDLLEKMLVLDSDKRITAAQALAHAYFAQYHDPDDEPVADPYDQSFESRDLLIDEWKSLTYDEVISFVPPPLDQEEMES

Row | IC50 | Structure (SMILES)
12 | 0.156 µM | Cc1cccc(-n2nc(C)cc2-c2ccnc(NCCO)c2)c1 [Example 26, 2-(2-Hydroxyethylamino)-4-[1-(3-methylphenyl)-3-methyl-1H-pyrazol-5-yl]pyridine]
13 | 2.97 µM | Cc1cc(-c2ccnc(C#N)c2)n(-c2ccc(F)cc2)n1 [Example 32, 2-Cyano-4-[1-(4-fluorophenyl)-3-methyl-1H-pyrazol-5-yl]pyridine]
14 | 65.1 µM | O=C(O)c1cnn(-c2ccc(F)cc2)c1-c1ccncc1 [Example 43]
15 | > 100 µM | Cc1cccc(-n2nc(C)cc2-c2ccnc(N(C)Cc3ccccc3)c2)c1 [Example 27, 2-(N-Methylbenzylamino)-4-[1-(3-methylphenyl)-3-methyl-1H-pyrazol-5-yl]pyridine]
16 | 0.07 µM | CCNc1cc(-c2cc(C)nn2-c2ccc(C)cc2)ccn1 [Example 8]
17 | 35.7 µM | Fc1ccc(-n2ncc(N3CCNCC3)c2-c2ccncc2)cc1 [Example 18]

Further lines, the molecule ahead of its results:

Row | Structure (SMILES) | IC50
18 | Fc1ccc(-n2nccc2-c2ccnc(NCc3ccccc3)c2)cc1 [Example 29, 2-(Benzylamino)-4-[1-(4-fluorophenyl)-1H-pyrazol-5-yl]pyridine] | 0.129 µM
19 | Cc1cccc(-n2nc(C)cc2-c2ccnc(OCc3ccccc3)c2)c1 [Example 28, 2-Bezyloxy-4-[1-(3-methylphenyl)-3-methyl-1H-pyrazol-5-yl]pyridine] | 0.843 µM
20 | Fc1ccc(-n2nccc2-c2ccnc(Cl)c2)cc1 [Example 45, 2-Chloro-4-[1-(4-fluorophenyl)-1H-pyrazol-5-yl]pyridine] | 1.06 µM
21 | CCNc1cc(-c2ccncc2)n(-c2ccc(F)cc2)n1 [Example 15] | > 100 µM
22 | Cc1cc(-c2ccnc(NCCc3ccccc3)c2)n(-c2ccc(Cl)cc2)n1 [Example 13] | 0.05 µM

test system: TNF-a (LPS-stimulated human peripheral blood mononuclear cells); experiment: TNF Cell Assay: LPS stimulation of human PBM cells, TNF-a by ELISA; assay type: cell-based; details: PBMC, LPS 20 ng/ml, overnight 37° C., compound 10-0.41 μM
Description: Method of Isolation of Human Peripheral Blood Mononuclear Cells:
Human whole blood was collected in Vacutainer tubes containing EDTA as an anticoagulant. A blood sample (7 ml) was carefully layered over 5 ml PMN Cell Isolation Medium (Robbins Scientific) in a 15 ml round bottom centrifuge tube. The sample was centrifuged at 450-500×g for 30-35 minutes in a swing out rotor at room temperature. After centrifugation, the top band of cells were removed and washed 3 times with PBS w/o calcium or magnesium. The cells were centrifuged at 400×g for 10 minutes at room temperature. The cells were resuspended in Macrophage Serum Free Medium (Gibco BRL) at a concentration of 2 million cells/ml.
LPS Stimulation of Human PBMS:
PBM cells (0.1 ml, 2 million/ml) were co-incubated with 0.1 ml compound (10-0.41 μM, final concentration) for 1 hour in flat bottom 96 well microtiter plates. Compounds were dissolved in DMSO initially and diluted in TCM for a final concentration of 0.1% DMSO. LPS (Calbiochem, 20 ng/ml, final concentration) was then added at a volume of 0.010 ml. Cultures were incubated overnight at 37° C. Supernatants were then removed and tested by ELISA for TNF-a and IL1-b. Viability was analyzed using MTS. After 0.1 ml supernatant was collected, 0.020 ml MTS was added to remaining 0.1 ml cells. The cells were incubated at 37° C. for 2-4 hours, then the O.D. was measured at […].

Row | IC50 | Structure (SMILES)
23 | 0.1 µM | Cc1cccc(-n2nc(C)cc2-c2ccnc(NCCO)c2)c1 [Example 26, 2-(2-Hydroxyethylamino)-4-[1-(3-methylphenyl)-3-methyl-1H-pyrazol-5-yl]pyridine]
24 | > 10 µM | Cc1cc(-c2ccnc(C#N)c2)n(-c2ccc(F)cc2)n1 [Example 32, 2-Cyano-4-[1-(4-fluorophenyl)-3-methyl-1H-pyrazol-5-yl]pyridine]
25 | > 10 µM | Cc1cccc(-n2nc(C)cc2-c2ccnc(N(C)Cc3ccccc3)c2)c1 [Example 27, 2-(N-Methylbenzylamino)-4-[1-(3-methylphenyl)-3-methyl-1H-pyrazol-5-yl]pyridine]
26 | 0.2 µM | CCNc1cc(-c2cc(C)nn2-c2ccc(C)cc2)ccn1 [Example 8]
27 | > 10 µM | Fc1ccc(-n2ncc(N3CCNCC3)c2-c2ccncc2)cc1 [Example 18]

The remaining lines, values behind:

Row | Structure (SMILES) | IC50
28 | Fc1ccc(-n2nccc2-c2ccnc(NCc3ccccc3)c2)cc1 [Example 29, 2-(Benzylamino)-4-[1-(4-fluorophenyl)-1H-pyrazol-5-yl]pyridine] | 1.3 µM
29 | Cc1cccc(-n2nc(C)cc2-c2ccnc(OCc3ccccc3)c2)c1 [Example 28, 2-Bezyloxy-4-[1-(3-methylphenyl)-3-methyl-1H-pyrazol-5-yl]pyridine] | > 10 µM
30 | Fc1ccc(-n2nccc2-c2ccnc(Cl)c2)cc1 [Example 45, 2-Chloro-4-[1-(4-fluorophenyl)-1H-pyrazol-5-yl]pyridine] | 8.1 µM
31 | CCNc1cc(-c2ccncc2)n(-c2ccc(F)cc2)n1 [Example 15] | > 10 µM
32 | Cc1cc(-c2ccnc(NCCc3ccccc3)c2)n(-c2ccc(Cl)cc2)n1 [Example 13] | 0.1 µM

test system: not given; experiment: not given; details: not given

Row | melting point | Structure (SMILES)
33 | 94 to 95 °C | Cc1cc(-c2ccnc(C#N)c2)n(-c2ccc(F)cc2)n1 [Example 32, 2-Cyano-4-[1-(4-fluorophenyl)-3-methyl-1H-pyrazol-5-yl]pyridine]
34 | 97.15 °C | CCNc1cc(-c2cc(C)nn2-c2ccc(C)cc2)ccn1 [Example 8]

— US6509361B1, “1,5-Diaryl substituted pyrazoles as p38 kinase inhibitors” (Pharmacia Corporation, priority 2001, dated 2003)
